Earlier results as cited in US20120263660A1, “Hair Loss Treatment” (POP TEST CORTISOL LLC, priority 2011, published 2012).

Columns and labels:
[1] = molecular target: T1, glucocorticoid receptor [GR] (Homo sapiens, UniProt P04150); details: disclosed in U.S. Pat. No. 6,011,025
T1 sequence (P04150 1-777): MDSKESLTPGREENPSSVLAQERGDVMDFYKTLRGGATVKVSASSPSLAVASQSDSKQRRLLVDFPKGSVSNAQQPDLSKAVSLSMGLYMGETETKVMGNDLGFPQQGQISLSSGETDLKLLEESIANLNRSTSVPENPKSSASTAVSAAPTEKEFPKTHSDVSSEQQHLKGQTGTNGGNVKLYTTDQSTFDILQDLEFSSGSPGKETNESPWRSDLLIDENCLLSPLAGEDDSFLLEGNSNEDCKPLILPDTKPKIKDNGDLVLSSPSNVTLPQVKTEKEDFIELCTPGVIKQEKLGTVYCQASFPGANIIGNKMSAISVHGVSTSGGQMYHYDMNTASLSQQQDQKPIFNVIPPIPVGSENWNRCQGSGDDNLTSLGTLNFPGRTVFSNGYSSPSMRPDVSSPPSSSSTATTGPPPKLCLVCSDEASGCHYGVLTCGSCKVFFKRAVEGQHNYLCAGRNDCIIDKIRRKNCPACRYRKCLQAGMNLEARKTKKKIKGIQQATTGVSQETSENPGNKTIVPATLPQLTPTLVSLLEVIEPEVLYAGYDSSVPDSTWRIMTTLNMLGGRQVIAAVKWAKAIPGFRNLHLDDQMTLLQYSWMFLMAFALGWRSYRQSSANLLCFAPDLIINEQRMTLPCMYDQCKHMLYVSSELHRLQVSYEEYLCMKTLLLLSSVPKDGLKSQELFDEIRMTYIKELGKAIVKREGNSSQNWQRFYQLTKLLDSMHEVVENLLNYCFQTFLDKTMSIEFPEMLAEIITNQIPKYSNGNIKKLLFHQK

[2] = molecular target: T2, progesterone receptor (Homo sapiens, UniProt P06401); details: specificity for GR blockade
T2 sequence (P06401 1-933): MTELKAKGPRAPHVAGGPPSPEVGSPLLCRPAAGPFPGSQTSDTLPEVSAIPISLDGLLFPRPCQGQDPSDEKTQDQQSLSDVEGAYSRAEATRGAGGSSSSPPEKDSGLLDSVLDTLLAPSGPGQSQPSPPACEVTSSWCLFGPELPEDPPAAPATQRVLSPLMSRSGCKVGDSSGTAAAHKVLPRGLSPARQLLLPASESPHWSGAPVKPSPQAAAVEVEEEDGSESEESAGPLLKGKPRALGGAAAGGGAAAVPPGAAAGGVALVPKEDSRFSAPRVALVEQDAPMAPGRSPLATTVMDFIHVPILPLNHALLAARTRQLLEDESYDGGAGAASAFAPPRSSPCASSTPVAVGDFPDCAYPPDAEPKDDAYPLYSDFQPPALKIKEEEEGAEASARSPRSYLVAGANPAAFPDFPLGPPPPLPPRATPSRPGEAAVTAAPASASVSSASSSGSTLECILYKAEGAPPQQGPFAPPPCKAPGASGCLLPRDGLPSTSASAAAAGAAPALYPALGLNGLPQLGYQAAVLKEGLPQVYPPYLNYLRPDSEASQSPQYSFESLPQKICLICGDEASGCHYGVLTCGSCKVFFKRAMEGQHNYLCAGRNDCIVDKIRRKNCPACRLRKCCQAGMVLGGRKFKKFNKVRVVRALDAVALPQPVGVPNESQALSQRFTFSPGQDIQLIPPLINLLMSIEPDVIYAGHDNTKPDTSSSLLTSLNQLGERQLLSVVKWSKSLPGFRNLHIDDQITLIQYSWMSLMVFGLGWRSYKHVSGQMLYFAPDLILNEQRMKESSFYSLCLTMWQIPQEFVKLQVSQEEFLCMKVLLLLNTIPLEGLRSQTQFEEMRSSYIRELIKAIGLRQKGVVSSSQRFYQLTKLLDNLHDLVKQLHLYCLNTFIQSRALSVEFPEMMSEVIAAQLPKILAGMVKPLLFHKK

[3] = all phase I and phase II clinical trials already performed
[4] = disclosed in U.S. Pat. No. 6,011,025
[5] = disclosed in U.S. Pat. No. 6,011,025; remark: listed apart in the source
[6] = test system: estrogen receptor; details: specificity for GR blockade

GR binding affinity [1]: high | cross-binding to progesterone receptor [2]: without significant cross-binding | cross-binding to estrogen receptor [6]: without significant cross-binding
Compound: CC#C[C@]1(O)CC[C@H]2[C@@H]3CCC4=CC(=O)CCC4=C3[C@@H](c3ccc4c(c3)OCO4)C[C@@]21C [ORG 34517]
significant toxicities and side effects [3]: none were identified | androgenic activity [4]: low | progestagenic activity [5]: low
